ChEMBL document CHEMBL2390950, “Dieckol, a SARS-CoV 3CL(pro) inhibitor, isolated from the edible brown algae Ecklonia cava” (Bioorg Med Chem, 2013)
Active and inactive are the calls of the source. No cut-off for these calls is given here.

Key:
[1] = target: T1, Replicase polyprotein 1ab (Severe acute respiratory syndrome-related coronavirus, UniProt P0C6X7); assay: (§1) Binding affinity to SARS coronavirus 3C-like protease by SPR analysis
[2] = system: Vero; assay: (§2) Cytotoxicity against african green monkey Vero cells assessed as cell death by MTT assay; format: cell-based; details: chlorocebus sabaeus, vero
[3] = target: Replicase polyprotein 1ab (Severe acute respiratory syndrome-related coronavirus) (UniProt P0C6X7); assay: (§3) Inhibition of SARS coronavirus 3C-like protease cis-cleavage activity transfected in african green monkey Vero cells using SAVLQSGFRK as substrate after 5 hrs by luciferase reporter gene assay; format: cell-based
[4] = target: T1, Replicase polyprotein 1ab; assay: as §3; format: cell-based
[5] = Selectivity index, ratio of CC50 for african green monkey Vero cells to IC50 for SARS coronavirus 3C-like protease cis-cleavage activity transfected in african green monkey Vero cells; format: functional
[6] = target: Replicase polyprotein 1ab (Severe acute respiratory syndrome-related coronavirus) (UniProt P0C6X7)
[7] = target: T1, Replicase polyprotein 1ab
[8] = target: T1, Replicase polyprotein 1ab; remark: listed apart in the source
[9] = target: Replicase polyprotein 1ab (Severe acute respiratory syndrome-related coronavirus) (UniProt P0C6X7); remark: listed apart in the source
[10] = target: Replicase polyprotein 1ab (Severe acute respiratory syndrome-related coronavirus) (UniProt P0C6X7); assay: Inhibition of SARS coronavirus 3C-like protease cis-cleavage activity transfected in african green monkey Vero cells using SAVLQSGFRK as substrate at 200 uM after 5 hrs by luciferase reporter gene assay relative to control; format: cell-based
[11] = target: Replicase polyprotein 1ab (Severe acute respiratory syndrome-related coronavirus) (UniProt P0C6X7); remark: listed apart in the source
[12] = target: Replicase polyprotein 1ab (Severe acute respiratory syndrome-related coronavirus) (UniProt P0C6X7); assay: as §1
[13] = target: Replicase polyprotein 1ab (Severe acute respiratory syndrome-related coronavirus) (UniProt P0C6X7); remark: listed apart in the source
[14] = target: Replicase polyprotein 1ab (Severe acute respiratory syndrome-related coronavirus) (UniProt P0C6X7); remark: listed apart in the source
[15] = as §2; format: cell-based; details: chlorocebus sabaeus, Vero cells

For `COc1ccc([C@@H]2CC(=O)c3c(O)cc(O)cc3O2)cc1O` [HESPERETIN], the Kd [1] was 24.5 µM.

In the case of `Oc1cc(O)c2oc3cc(O)c4oc5cc(O)cc(O)c5oc4c3oc2c1` [DIOXINODEHYDROECKOL], the CC50 [2] is reported as over 200 µM, the inhibition [3] is reported as “Dose-dependent effect” and the IC50 [4] is reported as 146 µM. The “Ratio CC50/IC50” value [5] was over 1.4, the inhibition [6] was “Dose-dependent effect” and the IC50 [7] was 158 µM.

With `Oc1cc(O)cc(O)c1` [PHLOROGLUCINOL] the CC50 [2] was over 200 µM and the IC50 [7] was over 200 µM.

With `Oc1cc(O)cc(Oc2c(O)cc(O)c3c2Oc2c(O)cc4oc5c(Oc6cc(O)cc(O)c6)c(O)cc(O)c5c4c2O3)c1` [PHLOROFUCOFUROECKOL A] the CC50 [2] was over 200 µM, the inhibition [3] was “Dose-dependent effect” and the IC50 [4] was 175 µM. The “Ratio CC50/IC50” value [5] was over 1.1, the inhibition [6] was “Dose-dependent effect” and the IC50 [7] was 16.7 µM. The Ki [8] was 10.6 µM and the inhibition [9] was “Active”.

With `Oc1cc(O)cc(Oc2c(Oc3c(O)cc(O)cc3O)cc(O)c3c2Oc2c(O)cc(O)cc2O3)c1` [2-PHLOROECKOL] the CC50 [2] was over 200 µM, the inhibition [3] was “Dose-dependent effect” and the IC50 [4] was 112 µM. For the same compound, the “Ratio CC50/IC50” value [5] was over 1.8, the inhibition [6] was “Dose-dependent effect” and the IC50 [7] was 13.3 µM. For the same compound, the Ki [8] was 24 µM and the inhibition [9] was “Active”.

With `Oc1cc(O)cc(Oc2c(O)cc(O)c3c2Oc2c(O)cc(O)cc2O3)c1` [ECKOL] the CC50 [2] was over 200 µM, the “Ratio CC50/IC50” value [5] was under 1 and the inhibition [6] was “Dose-dependent effect”. It also gave an IC50 [7] of 8.8 µM, an inhibition [10] of 30% and a Ki [8] of 8.2 µM. The inhibition [9] was “Active”.

With `Oc1cc(O)cc(Oc2c(O)cc(O)c3c2Oc2c(O)cc(Oc4c(O)cc(O)cc4O)cc2O3)c1` the CC50 [2] was over 200 µM, the inhibition [3] was “Dose-dependent effect” and the IC50 [4] was 112 µM. For the same compound, the “Ratio CC50/IC50” value [5] was over 1.8, the inhibition [6] was “Dose-dependent effect” and the IC50 [7] was 42.1 µM. For the same compound, the Ki [8] was 19.3 µM and the inhibition [9] was “Active”.

In the case of `Oc1cc(O)c(Oc2cc(O)cc(O)c2Oc2cc(O)cc(O)c2-c2c(O)cc(O)cc2O)c(O)c1` [FUCODIPHLOROETHOL G], the CC50 [2] is reported as over 200 µM, the inhibition [3] is reported as “Dose-dependent effect” and the IC50 [4] is reported as 177 µM. The “Ratio CC50/IC50” value [5] was over 1.1, the inhibition [6] was “Dose-dependent effect” and the IC50 [7] was 22.5 µM. For the same compound, the Ki [8] was 63.5 µM and the inhibition [9] was “Active”.

With `Oc1cc(O)cc(Oc2c(O)cc(O)c3c2Oc2c(O)cc(Oc4c(O)cc(Oc5c(O)cc(O)c6c5Oc5c(O)cc(O)cc5O6)cc4O)cc2O3)c1` [DIECKOL] the CC50 [2] was over 200 µM, the inhibition [3] was “Dose-dependent effect” and the IC50 [4] was 68.1 µM. The Ratio IC50 [11] was 30, the “Ratio CC50/IC50” value [5] was over 2.9 and the inhibition [6] was “Dose-dependent effect”. The IC50 [7] was 2.7 µM, the Ki [8] was 2.4 µM and the Activity [12] was “Dose-dependent effect”. The Kd [1] was 10.3 µM, the inhibition [9] was “Active” and the Ratio IC50 [13] was 60. It also gave a Ratio IC50 [14] of 50.

For `Oc1cc(O)cc(Oc2c(O)cc(Oc3c(O)cc(O)cc3O)cc2O)c1` [TRIPHLORETHOL A], the CC50 [15] was over 200 µM, the “Ratio CC50/IC50” value [5] was under 1 and the inhibition [6] was “Dose-dependent effect”. The inhibition [10] was 15%.
